Consider one compound from patent US20250353825A1, “CANNABICYCLOL DERIVATIVES AND PREPARATION METHODS THEREOF” (priority 2023, published 2025).

Molecules are shown by their SMILES. Converted amounts (≈) assume the structure as drawn.

Holding throughout (format): cell-based
In series [1] the test system is MDA-MB231. The series is described as follows: MTS cell viability assay, MDA-MB231. Particulars: Homo sapiens, MDA-MB-231; Table 7, 72 hours; read-out: IC50 against MDA-MB231. The method, then:
(§1) Primary viability screening: (1) the synthesized compounds 3a to 13d were respectively dissolved in DMSO to prepare a 40 μg/mL cannabicyclol and cannabicyclol derivative solutions.
(§2) (2) A control group: a 200 μL DMSO solvent.
(§3) (3) The solutions of compounds 3a to 13d were diluted in a twofold gradient to obtain cannabicyclol and cannabicyclol derivative solutions at concentrations of 40 μg/mL, 20 μg/mL, 10 μg/mL, 5 μg/mL, 2.5 μg/mL, 1.25 μg/mL, and 0.625 μg/mL, and 0.3125 μg/mL, respectively.
(§4) (4) Three glioblastoma stem cells (GSC-3, GSC-12, and GSC-18), three pancreatic cancer cell-derived stem cells (PANC-1-CSC, BXPC-3-CSC, and ASPC1-CSC), three liver cancer cell-derived stem cells (HepG2-CSC, MHCC97H-CSC, and SMMC7721-CSC), HEK-293T cells, 16 tumor cells (U251, U87, T98G, PANC1, BXPC3, ASPC1, HepG2, MHCC97H, SMMC7721, PC3, SKOV3, MDA-MB231, A549, HCT116, HEC-1B, MKN28), and differentiated glioblastoma stem cells (GSC-3diff and GSC-12diff) derived from GSC-3 and GSC-12 (all of the cells were provided by the Laboratory of Tumor Animal Model Preparation and Application Research, West China Hospital, Sichuan University) were inoculated into a 96-well plate at a concentration of 2×10^4 cells/well, and 100 μL of culture medium was then added to each well; […]
(§5) (10) The absorbance value at 490 nm was measured on an enzyme labeling apparatus, and the IC50 value was calculated.
(Tetrazolium dyes change colour on reduction, which living cells bring about.)

The test system of series [2] is HEC18. The series is described as follows: MTS cell viability assay, HEC18. Particulars: Table 7, 72 hours; read-out: IC50 against HEC18. The method, then:
as §1, §2, §3, §4, §5

In series [3] the test system is U251. The series can be described thus: MTS cell viability assay, U251. The protocol: as §1, §2, §3
(4) Three glioblastoma stem cells (GSC-3, GSC-12, and GSC-18), three pancreatic cancer cell-derived stem cells (PANC-1-CSC, BXPC-3-CSC, and ASPC1-CSC), three liver cancer cell-derived stem cells (HepG2-CSC, MHCC97H-CSC, and SMMC7721-CSC), HEK-293T cells, 16 tumor cells (U251, U87, T98G, PANC1, BXPC3, ASPC1, HepG2, MHCC97H, SMMC7721, PC3, SKOV3, MDA-MB231, A549, HCT116, HEC-1B, MKN28), and differentiated glioblastoma stem cells (GSC-3diff and GSC-12diff) derived from GSC-3 and GSC-12 (all of the cells were provided by the Laboratory of Tumor Animal Model Preparation and Application Research, West China Hospital, Sichuan University) were inoculated into a 96-well plate at a concentration of 2×10^4 cells/well, and 100 μL of culture medium was then added to each well;
(5) 2) HEK-293T, GSC-3diff, GSC-12diff, and the 16 tumor cells were added with DMEM, 10% FBS, and 1% double antibody culture medium. Cancer stem cells (CSCs) were added with serum-free stem cell medium consisting of DMEM/F12, EGF (20 ng/mL), bFGF (20 ng/mL), B27 (1×), and 1% double antibody culture medium.
(6) Inoculated cells were put into a cell culture incubator for 24 hours, and after the cells were well adhered to the wall, the culture medium in the 96-well plate was discarded.
(7) 200 μL cannabicyclol and cannabicyclol derivatives solutions at different concentrations were added to the cultured cells.
(8) The experiment was set up with 3 replicates.
(9) The 96-well plate was placed in a cell culture incubator, and incubation was continued at 37° C. and 5% CO2 for 72 hours. Then, 100 μL of cannabicyclol and cannabicyclol derivative solution per well was discarded (100 μL of DMSO solvent was discarded for the control group), and 20 μL of LMTS (CellTiter AQueous Non-Radioactive Cell Proliferation Assay, #G3581) was mixed and continued to be placed in the cell incubator for 2 hours of incubation.
as §5

For series [4], the system named is MHCC97H-CSC. The series is described as follows: MTS cell viability assay, MHCC97H-CSC. Particulars: Table 6, tumor stem cell, 72 hours; read-out: IC50 against MHCC97H-CSC. The protocol:
as §1, §2, §3, §4, §5

The test system of series [5] is SMMC7721. The series is described as follows: MTS cell viability assay, SMMC7721. Particulars: Homo sapiens, SMMC-7721; Table 7, 72 hours; read-out: IC50 against SMMC7721. The method, then: as §1, §2, §3, §4, §5
Series [6] deals with HCT116. The series is described as follows: MTS cell viability assay, HCT116. The following applies: Homo sapiens, HCT-116; Table 7, 72 hours; read-out: IC50 against HCT116. The method, then:
as §1, §2, §3, §4, §5

For series [7], the system named is U87. The series is described as follows: MTS cell viability assay, U87. The following applies: Homo sapiens, U-87 MG; Table 7, 72 hours; read-out: IC50 against U87. The protocol: as §1, §2, §3, §4, §5
Series [8] has as its system BXPC3-CSC. The series is described as follows: MTS cell viability assay, BXPC3-CSC. The following applies: Table 6, tumor stem cell, 72 hours; read-out: IC50 against BXPC3-CSC. The method, then: as §1, §2, §3, §4, §5
In series [9] the test system is PANC1-CSC. The series is described as follows: MTS cell viability assay, PANC1-CSC. The following applies: Table 6, tumor stem cell, 72 hours; read-out: IC50 against PANC1-CSC. The method, then:
as §1, §2, §3, §4, §5

Series [10] relates to PANC1. The series can be described thus: MTS cell viability assay, PANC1. The following applies: Homo sapiens, PANC-1; Table 7, 72 hours; read-out: IC50 against PANC1. The method, then: as §1, §2, §3, §4, §5
Series [11] relates to PC3. The series is described as follows: MTS cell viability assay, PC3. The following applies: Homo sapiens, PC-3; Table 7, 72 hours; read-out: IC50 against PC3. The protocol:
as §1, §2, §3, §4, §5

As to `CCCCCc1cc(O)c2c(c1)OC1(C)CCC3C1C2C3(C)C` (stereo not drawn) [Compound 3a, cannabicyclol], the IC50 in [1] is greater than 40 µg/mL; in series [2], greater than 40 µg/mL; in series [3] (Homo sapiens, U-251, 72 h, read-out: IC50 against U251) it was greater than 40 µg/mL; in [4], 5.32 µg/mL (≈ 16.9 µM); in [5] it was greater than 40 µg/mL; in series [6], greater than 40 µg/mL. Further, the concentration for half-maximal inhibition (IC50) in series [7] was greater than 40 µg/mL; in series [8] it was 2.19 µg/mL (≈ 6.96 µM); in series [9], 13 µg/mL (≈ 41.3 µM); in series [10], greater than 40 µg/mL; in [11], greater than 40 µg/mL. Also, the “Cell viability in U251 (%)” value in [3] (primary viability screening, 72 hours, MTS, test concentration not stated) was found to be 54%.

The IC50 is the concentration that inhibits the measured activity by half.
